Source: US20200071675A1, “METHOD FOR PRODUCING ENDOTHELIAL CELLS” (TAKARA BIO INC., priority 2016, published 2020)
Like-named read-outs stand apart in the source and are kept apart here.

Legend:
[1] = tested on: KDR-positive vascular endothelial progenitor cells from human iPS cells (ChiPSC12 strain)
Protocol: Human iPS cells (ChiPSC12 strain) were cultured in DEF-CS medium in accordance with the instructions attached to the medium.
TrypLE(trademark) Select was added to iPS cells that had been subcultured, and the cells were incubated at 37° C. for 3 to 7 minutes. The detached cells were collected as a single cell by pipetting, and the cell numbers were counted. […] Thereafter, the medium was exchanged with DEF-CS medium added with Matrigel diluted to 1:60, and the cells were cultured for additional 16 to 24 hours, thereby coating an upper layer of the cells with Matrigel.
The Matrigel-coated iPS cells obtained were differentiated into mesodermal cells in accordance with the following procedures. First, a medium of the Matrigel-coated iPS cells was exchanged with RPMI 1640 medium added with 100 ng/mL activin A, 2 mM GlutaMAX(trademark), and B27 supplement (without containing insulin) (this time point being defined as the beginning of the induction of differentiation=Day 0), and the cells were cultured for 24 hours (Day 1). Next, the medium was exchanged with RPMI 1640 medium added with 10 ng/mL hBMP4, 10 ng/mL hbFGF, 2 mM GlutaMAX, and B27 supplement, and the cells were cultured for 3 days (Day 4). Thereafter, the medium was exchanged with RPMI 1640 medium added with 100 ng/mL VEGF, 2 mM GlutaMAX, and B27 supplement, and the cells were cultured overnight (Day 5).
KDR-positive cells were separated from the cultured cells at Day 5 by using the magnetic-activated cell sorting, thereby isolating vascular endothelial progenitor cells. In order to separate the KDR-positive cells, an anti-KDR antibody to which a PE fluorescent label was bound was used as a primary antibody for labeling cells, and cells labeled with the primary antibody were collected with magnetic beads embedding anti-PE antibodies. […] Further, the medium at Day 6 was exchanged with RPMI 1640 medium added with B27 supplement, 50 units/mL penicillin, 50 μg/mL streptomycin, 2 mM GlutaMAX, and 100 ng/mL VEGF, and the cells were cultured for 2 days (Day 8).
Here, CD31 is a marker of endothelial cells, and CD34 is a marker of hematopoietic stems cells or endothelial progenitor cells. In addition, CD34 is also expressed in juvenile endothelial cells.

[2] = tested on: KDR-positive vascular endothelial progenitor cells from human iPS cells (ChiPSC12 strain); experiment: Cell numbers during differentiation of iPS cell-derived vascular endothelial progenitor cells cultured with a TGF-β inhibitor (Days 8 to 11); assay type: cell-based; settings: for Cell Numbers (Day 19) / Cell Numbers (Day 30): cell numbers at Day 8 defined as 1
[3] = tested on: KDR-positive vascular endothelial progenitor cells from human iPS cells (ChiPSC12 strain); experiment: CD31-positive cell ratio (endothelial cell marker) by flow cytometry; assay type: cell-based
Protocol: Human iPS cells ([…]) were cultured in DEF-CS medium (Cellartis) in accordance with the instructions attached to the medium. In order to efficiently induce differentiation of mesodermal cells, iPS cells were coated with Matrigel (Matrigel Sandwich method) in accordance with the following procedures. […] Here, SB431542, another TGF-β inhibitor, was used as a negative control. The cells were collected at Day 11, and the cell numbers were counted.

[4] = tested on: vascular endothelial cells induced from human iPS cells (ChiPSC12 strain); experiment: Freezing and thawing of vascular endothelial cells induced with RepSox; settings: cells induced with 20 μM RepSox, collected Days 18 to 22, stored in liquid nitrogen for 3 days, thawed at 37° C.
Protocol: The collected cells were washed, and suspended in Stem Cell Banker (TAKARA BIO INC.) so as to have a cell concentration of 3×10^6/mL, and 1 mL of each of the suspension was dispensed to vials. The vials were placed in a frozen-treated vessel (BICELL, Nihon Freezer Co., Ltd.), and the cells were subjected to slow freezing in a freezing storage chamber held at a temperature of −80° C. Thereafter, each vial was transferred to a liquid nitrogen, and stored for 3 days.
The frozen cells were warmed for 2 minutes and 30 seconds with a water bath warmed to 37° C., to thaw the cells. […] An entire amount of the remaining cells was added to a tube to which 8 mL of a medium for proliferating endothelial cells had been dispensed in advance. Thereafter, a vial was rinsed with 1 mL of a medium for proliferating endothelial cells, and a rinsed medium was added to the tube. The tube was centrifuged at 200×g for 5 minutes, and the supernatant was then discarded. The cells were suspended in a fresh medium for culturing endothelial cells, and the cells were seeded at a density of 2×10^4 cells/cm^2 to a culture vessel. […]
The cells were collected on a seventh day after thawing the cells, and the cell numbers were counted. At the same time, the CD31-positive cell ratio, an endothelial cell marker, was measured with a flow cytometry.

Cc1cccc(-c2[nH]ncc2-c2ccc3ncccc3n2)n1 [RepSox]
CD31+/CD34+ (Day 13) ([1]; 3 μM RepSox Day 8 to 11): 96.9%
CD31+/CD34+ (Day 18) ([1]; 3 μM RepSox Day 8 to 11): 93.3%
CD31+/CD34+ (Day 13) ([1]; 10 μM RepSox Day 8 to 11): 96.1%
CD31+/CD34+ (Day 18) ([1]; 10 μM RepSox Day 8 to 11): 94.4%
CD31+/CD34+ (Day 13) ([1]; 20 μM RepSox Day 8 to 11): 95.8%
CD31+/CD34+ (Day 18) ([1]; 20 μM RepSox Day 8 to 11): 96.1%
CD31+/CD34+ cells at Day 13 ([1]; regardless of the concentrations of RepSox (3, 10, 20 μM)): ≥ 95%
Cell Numbers (Day 19) ([2]; 3 μM inhibitor Days 8 to 11): 3.1
Cell Numbers (Day 30) ([2]; 3 μM inhibitor Days 8 to 11): 2.5
Cell Numbers (Day 19) ([2]; 10 μM inhibitor Days 8 to 11): 3.5
Cell Numbers (Day 30) ([2]; 10 μM inhibitor Days 8 to 11): 9.1
Cell Numbers (Day 19) ([2]; 20 μM inhibitor Days 8 to 11): 3.5
Cell Numbers (Day 30) ([2]; 20 μM inhibitor Days 8 to 11): 3.1
cell proliferation rates at Day 30 ([2]; text summary: 'in both the media containing 3 μM RepSox', relative to Day 8 = 1): ≥ 2.5
CD31-Positive (Day 19) ([3]; 3 μM inhibitor Days 8 to 11): 98.9%
CD31-Positive (Day 30) ([3]; 3 μM inhibitor Days 8 to 11): 87.0%
CD31-Positive (Day 19) ([3]; 10 μM inhibitor Days 8 to 11): 99.7%
CD31-Positive (Day 30) ([3]; 10 μM inhibitor Days 8 to 11): 99.0%
CD31-Positive (Day 19) ([3]; 20 μM inhibitor Days 8 to 11): 99.8%
CD31-Positive (Day 30) ([3]; 20 μM inhibitor Days 8 to 11): 99.1%
CD31-positive ratios (Day 30) ([3]; text summary: 'in both the media containing 3 μM RepSox'): ≥ 87%
cell viability after thawing [4]: 87%

NC(=O)c1ccc(-c2nc(-c3ccc4c(c3)OCO4)c(-c3ccccn3)[nH]2)cc1 [SB431542]
Cell Numbers (Day 19) ([2]; 10 μM inhibitor Days 8 to 11): 1.3
Cell Numbers (Day 30) ([2]; 10 μM inhibitor Days 8 to 11): 0.9
Cell Numbers (Day 19) ([2]; 20 μM inhibitor Days 8 to 11): 2.3
Cell Numbers (Day 30) ([2]; 20 μM inhibitor Days 8 to 11): 5.1
CD31-Positive (Day 19) ([3]; 10 μM inhibitor Days 8 to 11): 97.7%
CD31-Positive (Day 30) ([3]; 10 μM inhibitor Days 8 to 11): 89.4%
CD31-Positive (Day 19) ([3]; 20 μM inhibitor Days 8 to 11): 98.7%
CD31-Positive (Day 30) ([3]; 20 μM inhibitor Days 8 to 11): 33.0%
